Tests used:
[1] = tested on: Wnt signaling pathway proteins (p-GSK-3β and β-catenin); assay: Western blot of Wnt signaling pathway proteins in HaCaT cells; format: cell-based, human; settings: 0.1, 1, 10 μM, 24 hours
Procedure: (§1) Specifically, the expressions of proteins involved in major signaling pathways related to hair growth were analyzed when HaCaT and DP cells were treated with RKLW and RQLW at 0.1, 1, and 10 μM and cultured for 24 hours.
(§2) Furthermore, the protein immunoblot (Western blot) results showing differential expressions and phosphorylation of proteins involved in Wnt signaling pathway in HaCaT and DP cells are shown in FIG. 6. […] When DP cells were treated with RKLW or RQLW, the expression of p-GSK-3β was not increased, but the expression of β-catenin was increased, meaning that in DP cells, RKLW or RQLW accumulates β-catenin through a pathway other than GSK-3β to activate Wnt signaling.

[2] = tested on: cell cycle marker proteins (Cyclin D1, CDK4, Cyclin E1, and CDK2); assay: Western blot of cell cycle marker proteins in DP cells; format: cell-based, human; settings: 0.1, 1, 10 μM, 24 hours
Procedure: (§3) Cell cycle: maintaining the G1 phase of the cell cycle of scalp skin cells plays an important role in maintaining scalp health.
(§4) Specifically, the expressions of Cyclin D/CDK4 and Cyclin E/CDK2, which activate the G1 phase, were analyzed when HaCaT and DP cells were treated with RKLW and RQLW at 0.1, 1, and 10 µM and cultured for 24 hours, and the results are shown in FIG. 8.

[3] = tested on: Wnt signaling pathway proteins (p-GSK-3β and β-catenin); assay: Western blot of Wnt signaling pathway proteins in DP cells; format: cell-based, human; settings: 0.1, 1, 10 μM, 24 hours
Procedure: as §1, §2

HaCaT cells = assay: Cell viability (CCK-8) in human keratinocytes; format: cell-based
Procedure: (§5) In order to evaluate the efficacy of peptide treatment (RKLW and RQLW) to promote skin cell proliferation, human keratinocytes and dermal papilla (DP) cells were treated with RKLW and RQLW at 0.1, 1, and 10 μM. After being cultured for 24 and 48 hours, cells were treated with Cell Counting Kit-8 (CCK-8) to measure cell viability, and the results are shown in FIG. 3.

[4] = tested on: dermal papilla (DP) cells; assay: Cell viability (CCK-8) in dermal papilla cells; format: cell-based, human
Procedure: as §5

[5] = tested on: mitochondrial apoptosis signaling pathway proteins (Bax, Bcl-2, Caspase-3, and PARP); assay: Western blot of mitochondrial apoptosis signaling proteins in DP cells; format: cell-based, human; settings: 0.1, 1, 10 μM, 24 hours
Procedure: (§6) Mitochondrial apoptosis: Bax is a pro-apoptotic protein that promotes apoptosis, and Bcl-2 is a pro-survival protein that suppresses apoptosis; the balance between these two proteins is important in regulating apoptosis.
(§7) Specifically, the expressions of proteins involved in mitochondrial apoptotic signaling pathways were analyzed when HaCaT and DP cells were treated with RKLW and RQLW at 0.1, 1, and 10 μM and cultured for 24 hours, and the results are shown in FIG. 7.

[6] = tested on: androgen receptor (AR) and its target proteins (DKK-1 and TGF-β); assay: Western blot of AR and its target proteins in DP cells; format: cell-based, human; settings: 0.1, 1, 10 μM, 24 hours
Procedure: (§8) The expression and phosphorylation of protein markers involved in alopecia-related signal transduction pathways were evaluated after treatment with peptides (RKLW and RQLW).
(§9) DHT-AR and Wnt/beta-catenin pathway: An androgen receptor (AR) is a protein that binds to dihydrotestosterone (DHT), a representative inducer of androgenetic alopecia, and when the AR is activated by binding to DHT, Dickkopf-1 (DKK-1) and transforming growth factor beta (TGF-β) are expressed and promote alopecia. In addition, DKK-1, which is expressed by the activation of the AR, suppresses the Wnt signaling pathway involved in the development and growth of hair follicles, and TGF-β induces alopecia by suppressing the growth of hair follicle cells.
as §1
(§10) The protein immunoblot (Western blot) results of the expression of the AR and its target proteins (DKK-1 and TGF-β) in HaCaT and DP cells are shown in FIG. 5. […] When DP cells were treated with RKLW or RQLW, the expression levels of both the AR and its target protein TGF-β was reduced.

[7] = tested on: cell cycle marker proteins (Cyclin D1, CDK4, Cyclin E1, and CDK2); assay: Western blot of cell cycle marker proteins in HaCaT cells; format: cell-based, human; settings: 0.1, 1, 10 μM, 24 hours
Procedure: as §3, §4

[8] = tested on: mitochondrial apoptosis signaling pathway proteins (Bax, Bcl-2, Caspase-3, and PARP); assay: Western blot of mitochondrial apoptosis signaling proteins in HaCaT cells; format: cell-based, human; settings: 0.1, 1, 10 μM, 24 hours
Procedure: as §6, §7

[9] = tested on: androgen receptor (AR) and its target proteins (DKK-1 and TGF-β); assay: Western blot of AR and its target proteins in HaCaT cells; format: cell-based, human; settings: 0.1, 1, 10 μM, 24 hours
Procedure: as §8, §9, §1, §10

Row | Substance | expression level of p-GSK-3β [1] | expression level of β-catenin [1] | expression level of Cyclin D/CDK4 [2] | expression level of Cyclin E/CDK2 [2] | expression of p-GSK-3β [3] | expression of β-catenin [3] | cell viability of dermal papilla cells ([4]; 1 and 10 μM, 24 hours) | expression ratio of Bax/Bcl-2 [5] | expression level of AR [6] | expression level of TGF-β [6] | expression level of Cyclin D/CDK4 [7] | expression level of Cyclin E/CDK2 [7] | effect of suppressing apoptosis [8] | AR expression [9] | expression level of DKK-1 [9] | expression level of TGF-β [9] | further results
1 | RKLW (listed as Homo sapiens) | increased | increased | increased | did not affect | not increased | increased | significantly increased cell viability | unable to regulate | reduced | reduced | increased | increased | relatively insignificant effect | no significant change | decreased | decreased | cell viability of HaCaT cells (HaCaT cells; 24 and 48 hours, CCK-8): did not show statistical significance; treatment concentration at which cell viability was significantly increased ([4]; 48 hours): ≤ 10 µM
2 | RQLW (listed as Homo sapiens) | increased | increased | increased | did not affect | not increased | increased | significantly increased cell viability | unable to regulate | reduced | reduced | increased | increased | showed an effect of suppressing apoptosis | no significant change | decreased | decreased | concentration at which cell viability was significantly increased (HaCaT cells; after 24 hours): ≥ 100 µM; concentration at which cell viability was significantly increased (HaCaT cells; after 48 hours): ≥ 10 µM; cell viability of dermal papilla cells ([4]; 48 hours): no significant difference; expression ratio of Bax/Bcl-2 [8]: tended to decrease; protein level of PARP [8]: tended to decrease; protein level of cleaved caspase-3 [8]: tended to decrease
